Data from US9173952B2, “Mitochondrial penetrating peptides as carriers for antimicrobials” (priority 2010, dated 2015).
Converted amounts (≈) assume the structure as drawn. “Also recorded” adds a separate entry of the source. Read-outs that look alike come from different tables or passages of the source. Starred links: 1 amine or outer side, 2 acyl side, 3 side chain; linkers in the order of their positions; H or OH if unused. Non-standard residues stand in square brackets, D forms with d. Residues, ends and D or L forms follow the SMILES beside them. *: point of attachment. DAMPA = CN(Cc1cnc2nc(N)nc(N)c2n1)c1ccc(C(=O)*)cc1; γGlu = O=C(O)[C@H](CCC(=O)[*:2])N[*:1]; Cha = N[C@@H](CC1CCCCC1)C(=O)O

Assays:
[1] = Analysis of cell toxicity (HeLa), CCK-8 viability; type: cell-based; details: human, HeLa cells, 72-hour incubation, read-out: LD50 (50% lethal dose, concentration where 50% toxicity is observed)
Procedure: HeLa cells were cultured as described above. Cells were seeded in 96-well flat bottom tissue culture plates (Starsted, N.C.) at a density of 1500 cells per well. The culture media was removed and cells were washed with MEM-alpha (minus nucleotides). […] Cellular viability was analyzed after the indicated times using the CCK-8 viability dye (Dojindo, Rockville, Md.) at an absorbance of 450 nm.

[2] = test system: HeLa cells; experiment: Measurement of cellular ATP levels; type: cell-based, human; details: Mtx-Fxr3 16 μM 16 hours, rotenone 100 nM 1 hour
Procedure: HeLa cells were seeded at a density of 50,000 cells per well one day prior to experiments. […] After treatment, cells were washed with PBS, harvested with trypsin/EDTA for 7 min at 37° C. Complete media was added to terminate the reaction and cells were collected by centrifugation (8 min at 700×g) and washed with PBS. Cells were lysed with 40 μl 1% TCA/4 mM EDTA for 20 minutes on ice, followed by 20 μl 1M Tris buffer pH 7.4. ATP levels were assessed using the ATP Bioluminescent Assay Kit (Sigma, Saint Louis Mich.) and a Spectramax M5 plate reader (Molecular Devices, Sunnyvale Calif.).

[3] = test system: HeLa cells; experiment: Measurement of mitochondrial membrane potential (JC-1, flow cytometry); type: cell-based, human; details: Mtx-Fxr3 16 μM 72 hours, FCCP 10 μM 6 minutes
Procedure: HeLa cells were seeded in at 6,250 cells per well in 24 well plates. […] Carbonyl cyanide 4-(trifluoromethoxy)phenylhydrazone (FCCP) was added at 10 μM for 6 minutes prior to analysis to disrupt the mitochondrial membrane potential. The mitchondrial membrane potential sensitive dye JC-1 (Invitrogen, Carlsbad Calif.) was added at 5 μg/mL for 10 minutes at 37° C. Cells were washed with PBS and harvested as described above. Samples were subsequently analyzed by flow cytometry on a BD FACSCanto flow cytometer (BD Biosciences) with excitation at 488 nm and emmission wavelengths of 530 nm and 585 nm collected. Ratio of these two emmission wavelengths was used to measure changes in mitochondrial membrane potential.

[4] = test system: E. coli strain JW5503; experiment: microbe, parasite or virus in culture; type: cell-based, Escherichia coli
Procedure: (§1) Cell Culturing Conditions. HeLa cells were cultured in MEM alpha (Invitrogen, Carlsbad) supplemented with 10% (v/v) FBS at 37° C. with 5% CO2. Escherichia coli strain JW5503 from the Keio collection^12 (F−, Δ(araD-araB)567, ΔlacZ4787(:rrnB-3), λ^−, ΔtolC732:kan, rph-1, Δ(rhaD-rhaB)568, hsdR514) was grown on solid LB-agar or in LB liquid media supplemented with 50 μg/mL kanamycin at 37° C. Strains harboring the pCA24N plasmid were additionally grown with chloramphenicol at 20 μg/mL. B. subtilis was grown in LB media. S. aureus and E. faecalis were grown in Trypticase Soy Broth (TSB). S. pneumoniae were grown in TSB+5% defibrinated sheep's blood at 37° C. in an atmosphere of 5% CO2.
(§2) Minimum inhibitory concentration (MIC) determinations were performed to characterize the effect of each compound on bacterial growth. Briefly, overnight cultures were subcultured at 1:100 and grown to and OD600 of 0.5. Cells were Diluted 1:10000 into fresh media with test compounds. Cells were incubated for 16 hours at 37° C. Growth was monitored at OD600. Multi-copy suppression of compound toxicity was accomplished by inducing FolA (DHFR) expression from the pCA24N plasmid with 0.1 mM IPTG prior the incubation with test compounds. Compound toxicity was assessed in LB media for E. coli. […]

[5] = test system: E. faecalis (ATCC 29212); experiment: microbe, parasite or virus in culture; type: cell-based, Enterococcus faecalis
Procedure: as §1, §2

[6] = test system: B. subtilis; experiment: microbe, parasite or virus in culture; type: cell-based, Bacillus subtilis
Procedure: as §1, §2

[7] = test system: S. pneumoniae (ATCC 49619); experiment: microbe, parasite or virus in culture; type: cell-based, Streptococcus pneumoniae
Procedure: Minimum inhibitory concentration (MIC) determinations were performed to characterize the effect of each compound on bacterial growth. Briefly, overnight cultures were subcultured at 1:100 and grown to and OD600 of 0.5. Cells were Diluted 1:10000 into fresh media with test compounds. Cells were incubated for 16 hours at 37° C. Growth was monitored at OD600. […] For S. aureus B. subtilis, S. pneumonaie, and E. faecalis the defined media Mem-alpha minus nucleotides (Invitrogen, Carlsbad Calif.) was used to control for variability in thymidine content of undefined media. The final dilution into media was at 1:2000 for S. pneumoniae, and E. faecalis. 3% laked horse blood was added to the media for S. pnemoniae.

[8] = test system: MRSA (ATCC BAA-1720); experiment: microbe, parasite or virus in culture; type: cell-based, methicillin-resistant S. aureus
Procedure: as §1, §2

[9] = test system: S. aureus (ATCC 29213); experiment: microbe, parasite or virus in culture; type: cell-based, Staphylococcus aureus
Procedure: as §1, §2

Question: With CN(Cc1cnc2nc(N)nc(N)c2n1)c1ccc(C(=O)N[C@@H](CCC(=O)N[C@@H](CC2CCCCC2)C(=O)N[C@H](CCCNC(=N)N)C(=O)N[C@@H](CC2CCCCC2)C(=O)N[C@H](CCCNC(=N)N)C(=O)N[C@@H](CC2CCCCC2)C(=O)N[C@H](CCCNC(=N)N)C(N)=O)C(=O)O)cc1 [Mtx-Fxr3, Mtx-FxrFxrFxr] ({DAMPA-γGlu}-[Cha][dR][Cha][dR][Cha][dR]-NH2) as the compound, how does the CC50 at 72 h [1] read?
Answer: > 16 µM

Question: What about the “effect on cellular ATP levels” value [2] of the same compound?
Answer: did not result in a decrease in cellular ATP levels; also recorded: did not affect

Question: And the “effect on mitochondrial membrane potential” value [3]?
Answer: not perturb the mitochondrial membrane potential; also recorded: did not affect

Question: What about the “MIC (minimum inhibitory concentration)” value ([4]; strain JW5503, 16 h) of the same compound?
Answer: 0.5 µM (≈ 0.691 µg/mL)

Question: What does the source list for N=C(N)NCCC[C@@H](NC(=O)[C@H](CC1CCCCC1)NC(=O)[C@@H](CCCNC(=N)N)NC(=O)[C@H](CC1CCCCC1)NC(=O)[C@@H](CCCNC(=N)N)NC(=O)[C@@H](N)CC1CCCCC1)C(N)=O [Fxr3, FxrFxrFxr] (H-[Cha][dR][Cha][dR][Cha][dR]-NH2; N-terminus assumed)?
Answer: MIC ([5]; ATCC 29212): > 16 µM; MIC [6]: > 16 µM; MIC ([7]; ATCC 49619): > 16 µM; MIC ([8]; ATCC BAA-1720): > 32 µM; MIC ([9]; ATCC 29213): > 32 µM

Question: Which “effect on mitochondrial membrane potential” value [3] does the source give for N#CC(C#N)=NNc1ccc(OC(F)(F)F)cc1 [FCCP, Carbonyl cyanide 4-(trifluoromethoxy)phenylhydrazone, reference compound] here?
Answer: significant decrease in membrane potential

Question: Which MIC ([5]; Enterococcus faecalis, ATCC29212, E. faecalis (ATCC 29212), Mem-alpha minus nucleotides) does the source give for CN(Cc1cnc2nc(N)nc(N)c2n1)c1ccc(C(=O)N[C@@H](CCC(=O)O)C(=O)O)cc1 [Mtx, methotrexate, reference compound] here?
Answer: 4 µM (≈ 1.82 µg/mL)

Question: And the MIC ([6]; Bacillus subtilis, B. subtilis, Mem-alpha minus nucleotides)?
Answer: > 16 µM

Question: What about the MIC ([4]; Escherichia coli, JW5503, 16 h, read-out: MIC (minimum inhibitory concentration)) of the same compound?
Answer: > 32 µM

Question: And the MIC ([7]; Streptococcus pneumoniae, ATCC49619, S. pneumoniae (ATCC 49619), Mem-alpha minus nucleotides, 3% laked horse blood)?
Answer: 0.5 µM (≈ 0.227 µg/mL)

Question: And the MIC ([8]; Staphylococcus aureus, MRSA (ATCC BAA-1720))?
Answer: > 32 µM

Question: And the MIC ([9]; Staphylococcus aureus, ATCC29213, S. aureus (ATCC 29213), Mem-alpha minus nucleotides)?
Answer: > 32 µM
